Measured values from patent US9926282B2, “Phthalazinones and isoquinolinones as rock inhibitors” (BRISTOL-MYERS SQUIBB COMPANY, priority 2013, dated 2018).

Tests used:
ROCK1 = ROCK1 (Homo sapiens (Human), UniProt Q13464); experiment: ROCK assay (LABCHIP peptide phosphorylation), ROCK1; type: biochemical; settings: 5 μM ATP, 1.5 μM peptide substrate; read-out: ROCK1 IC50
ROCK2 = ROCK2 (Homo sapiens (Human), UniProt O75116); experiment: ROCK assay (LABCHIP peptide phosphorylation), ROCK2; type: biochemical; settings: 5 μM ATP, 1.5 μM peptide substrate
Chain of ROCK2 (O75116 whole entry, species assumed): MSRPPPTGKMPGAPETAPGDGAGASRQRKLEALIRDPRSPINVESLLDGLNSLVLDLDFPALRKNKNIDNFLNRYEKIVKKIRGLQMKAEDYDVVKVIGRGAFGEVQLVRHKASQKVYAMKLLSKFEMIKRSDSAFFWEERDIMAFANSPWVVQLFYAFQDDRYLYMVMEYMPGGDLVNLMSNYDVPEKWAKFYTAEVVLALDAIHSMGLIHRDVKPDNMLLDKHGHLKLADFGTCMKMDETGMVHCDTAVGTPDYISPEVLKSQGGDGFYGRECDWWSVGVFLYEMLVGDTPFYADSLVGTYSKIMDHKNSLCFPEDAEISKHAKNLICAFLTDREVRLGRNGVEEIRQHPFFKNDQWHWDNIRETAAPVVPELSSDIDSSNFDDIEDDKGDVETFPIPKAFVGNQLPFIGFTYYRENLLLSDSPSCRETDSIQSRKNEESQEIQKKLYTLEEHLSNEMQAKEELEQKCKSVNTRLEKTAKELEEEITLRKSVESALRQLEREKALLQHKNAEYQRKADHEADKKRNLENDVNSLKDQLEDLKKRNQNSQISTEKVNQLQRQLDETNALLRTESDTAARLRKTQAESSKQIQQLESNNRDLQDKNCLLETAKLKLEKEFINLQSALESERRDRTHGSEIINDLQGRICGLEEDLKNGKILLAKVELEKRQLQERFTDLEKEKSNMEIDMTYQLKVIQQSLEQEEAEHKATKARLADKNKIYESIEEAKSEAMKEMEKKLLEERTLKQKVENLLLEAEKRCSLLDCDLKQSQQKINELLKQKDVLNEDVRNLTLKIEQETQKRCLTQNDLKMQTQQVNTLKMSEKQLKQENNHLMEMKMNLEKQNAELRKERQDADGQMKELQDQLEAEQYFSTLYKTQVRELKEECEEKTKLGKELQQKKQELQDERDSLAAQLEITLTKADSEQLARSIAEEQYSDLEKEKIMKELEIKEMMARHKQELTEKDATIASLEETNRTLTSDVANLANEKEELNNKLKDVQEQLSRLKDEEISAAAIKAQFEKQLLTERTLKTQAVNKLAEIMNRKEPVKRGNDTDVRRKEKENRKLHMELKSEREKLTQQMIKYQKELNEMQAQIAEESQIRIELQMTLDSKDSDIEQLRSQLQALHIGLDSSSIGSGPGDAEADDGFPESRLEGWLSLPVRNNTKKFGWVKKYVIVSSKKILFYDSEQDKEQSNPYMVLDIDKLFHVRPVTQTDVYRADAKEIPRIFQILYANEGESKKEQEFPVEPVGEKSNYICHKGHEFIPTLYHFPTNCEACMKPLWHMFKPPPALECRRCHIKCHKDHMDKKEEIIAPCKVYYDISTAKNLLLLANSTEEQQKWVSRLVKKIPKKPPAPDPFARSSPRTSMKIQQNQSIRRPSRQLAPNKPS

Chain of ROCK1 (Q13464 whole entry, species assumed): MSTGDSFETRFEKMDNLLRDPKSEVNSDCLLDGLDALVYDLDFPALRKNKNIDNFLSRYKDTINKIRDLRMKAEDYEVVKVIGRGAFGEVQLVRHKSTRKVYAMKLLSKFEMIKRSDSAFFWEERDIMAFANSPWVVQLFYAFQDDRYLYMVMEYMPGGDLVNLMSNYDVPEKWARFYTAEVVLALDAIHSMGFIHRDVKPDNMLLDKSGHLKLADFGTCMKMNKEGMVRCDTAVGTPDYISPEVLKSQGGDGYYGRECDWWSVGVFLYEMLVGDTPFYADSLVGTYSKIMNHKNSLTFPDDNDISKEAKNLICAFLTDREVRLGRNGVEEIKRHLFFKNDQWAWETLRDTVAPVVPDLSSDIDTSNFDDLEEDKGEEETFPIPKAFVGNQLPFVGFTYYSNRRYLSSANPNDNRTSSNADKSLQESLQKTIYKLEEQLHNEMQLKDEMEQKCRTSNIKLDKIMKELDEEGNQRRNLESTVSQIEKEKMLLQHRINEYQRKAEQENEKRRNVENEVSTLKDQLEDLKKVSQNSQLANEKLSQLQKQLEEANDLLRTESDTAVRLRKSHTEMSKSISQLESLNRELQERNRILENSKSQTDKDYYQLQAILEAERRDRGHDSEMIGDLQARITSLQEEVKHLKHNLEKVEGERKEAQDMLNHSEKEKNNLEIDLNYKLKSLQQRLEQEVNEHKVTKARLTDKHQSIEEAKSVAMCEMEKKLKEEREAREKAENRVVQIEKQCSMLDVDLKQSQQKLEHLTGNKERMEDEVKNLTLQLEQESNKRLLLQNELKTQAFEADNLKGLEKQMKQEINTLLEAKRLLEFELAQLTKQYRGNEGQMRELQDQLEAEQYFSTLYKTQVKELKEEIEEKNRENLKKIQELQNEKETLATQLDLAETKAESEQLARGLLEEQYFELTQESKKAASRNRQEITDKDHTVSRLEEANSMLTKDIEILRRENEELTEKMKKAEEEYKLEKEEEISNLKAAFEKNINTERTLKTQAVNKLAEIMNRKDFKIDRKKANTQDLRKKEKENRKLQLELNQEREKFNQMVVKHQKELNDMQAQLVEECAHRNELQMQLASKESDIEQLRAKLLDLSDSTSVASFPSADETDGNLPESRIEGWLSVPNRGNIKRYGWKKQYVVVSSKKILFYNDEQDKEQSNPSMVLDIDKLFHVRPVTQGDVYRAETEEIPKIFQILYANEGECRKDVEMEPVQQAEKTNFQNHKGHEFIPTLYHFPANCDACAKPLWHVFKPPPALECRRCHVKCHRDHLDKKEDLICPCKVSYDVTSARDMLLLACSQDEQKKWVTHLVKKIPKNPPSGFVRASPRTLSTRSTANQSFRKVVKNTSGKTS

With `CN(C)c1ccc(C(=O)Nc2ccc(-c3c[nH]c(=O)c4ccccc34)cc2)cc1` [Example 245, 4-(Dimethylamino)-N-(4-(1-oxo-1,2-dihydroisoquinolin-4-yl)phenyl)benzamide] the IC50 (ROCK1) was 0.1 to 100 nM and the IC50 (ROCK2) was 0.1 to 100 nM.
`Cc1nn(-c2ccccc2)c(C)c1C(=O)Nc1ccc(-c2n[nH]c(=O)c3ccccc23)cc1` [Example 219, 3,5-dimethyl-N-[4-(4-oxo-3,4-dihydrophthalazin-1-yl)phenyl]-1-phenyl-1H-pyrazole-4-carboxamide] gave an IC50 (ROCK1) of 0.1 to 100 nM and an IC50 (ROCK2) of 0.1 to 100 nM.
Compound `O=C(Cc1ccc(-c2n[nH]c(=O)c3ccccc23)cc1)N1CCc2ccc(OCc3ccccc3)cc21` [Example 83, 4-(4-(2-(6-(Benzyloxy)indolin-1-yl)-2-oxoethyl)phenyl)phthalazin-1(2H)-one] has an IC50 (ROCK1) of 0.1 to 100 nM and an IC50 (ROCK2) of 0.1 to 100 nM.
`O=C(Nc1ccc(-c2n[nH]c(=O)c3ccccc23)cc1)C1Cc2ccccc2C1` [Example 44, N-(4-(4-Oxo-3,4-dihydrophthalazin-1-yl)phenyl)-2,3-dihydro-1H-indene-2-carboxamide] showed an IC50 (ROCK1) of 1000 to 50000 nM and an IC50 (ROCK2) of 0.1 to 100 nM.
With `COc1cccc(-n2cc(C(=O)Nc3ccc(-c4n[nH]c(=O)c5ccccc45)cc3)cn2)c1` [Example 203, 1-(3-methoxyphenyl)-N-[4-(4-oxo-3,4-dihydrophthalazin-1-yl)phenyl]-1H-pyrazole-4-carboxamide] the IC50 (ROCK1) was 101 to 1000 nM and the IC50 (ROCK2) was 0.1 to 100 nM.
In the case of `Cc1cc(NC(=O)c2c(C)nc3ccccn23)ccc1-c1n[nH]c(=O)c2ccccc12` [Example 311, 2-methyl-N-[3-methyl-4-(4-oxo-3,4-dihydrophthalazin-1-yl)phenyl]imidazo[1,2-a] pyridine-3-carboxamide], the IC50 (ROCK1) is reported as 0.1 to 100 nM and the IC50 (ROCK2) is reported as 0.1 to 100 nM.
`CCn1c(C(=O)Nc2ccc(-c3n[nH]c(=O)c4ccccc34)cc2)cc2ccccc21` [Example 107, 1-ethyl-N-[4-(4-oxo-3,4-dihydrophthalazin-1-yl)phenyl]-1H-indole-2-carboxamide] was tested, and the IC50 (ROCK1) was 0.1 to 100 nM and the IC50 (ROCK2) was 0.1 to 100 nM.
`Cc1cc(NC(=O)c2cn(CC(C)(C)O)c3ccccc23)ccc1-c1n[nH]c(=O)c2ccccc12` [Example 302, 1-(2-hydroxy-2-methylpropyl)-N-[3-methyl-4-(4-oxo-3,4-dihydrophthalazin-1-yl)phenyl]-1H-indole-3-carboxamide] showed an IC50 (ROCK1) of 0.1 to 100 nM and an IC50 (ROCK2) of 0.1 to 100 nM.
`O=C(Nc1ccc(-c2n[nH]c(=O)c3ccccc23)c(CO)c1)c1nn(CCO)c2ccccc12` [Example 359, 1-(2-Hydroxyethyl)-N-(3-(hydroxymethyl)-4-(4-oxo-3,4-dihydrophthalazin-1-yl)phenyl)-1H-indazole-3-carboxamide] gave an IC50 (ROCK1) of 1000 to 50000 nM and an IC50 (ROCK2) of 0.1 to 100 nM.
Compound `COc1cccc2[nH]cc(C(=O)Nc3ccc(-c4n[nH]c(=O)c5ccccc45)cc3)c12` [Example 117, 4-methoxy-N-[4-(4-oxo-3,4-dihydrophthalazin-1-yl)phenyl]-1H-indole-3-carboxamide] has an IC50 (ROCK1) of 0.1 to 100 nM and an IC50 (ROCK2) of 0.1 to 100 nM.
`Cn1nc(C(=O)Nc2ccc(-c3n[nH]c(=O)c4ccccc34)c(CO)c2)c2ccccc21` [Example 363, N-(3-(Hydroxymethyl)-4-(4-oxo-3,4-dihydrophthalazin-1-yl)phenyl)-1-methyl-1H-indazole-3-carboxamide] showed an IC50 (ROCK1) of 1000 to 50000 nM and an IC50 (ROCK2) of 0.1 to 100 nM.
With `O=C(Nc1ccc(-c2n[nH]c(=O)c3ccccc23)cc1)c1cnn(CC(O)(C(F)(F)F)C(F)(F)F)c1` [Example 380, N-(4-(4-Oxo-3,4-dihydrophthalazin-1-yl)phenyl)-1-(3,3,3-trifluoro-2-hydroxy-2-(trifluoromethyl)propyl)-1H-pyrazole-4-carboxamide] the IC50 (ROCK1) was 101 to 1000 nM and the IC50 (ROCK2) was 0.1 to 100 nM.
Compound `O=C(Nc1ccc(-c2n[nH]c(=O)c3ccccc23)c(Cl)c1)c1nn(CC2CCOC2)c2ccccc12` (stereo not shown) [Example 319, N-[3-chloro-4-(4-oxo-3,4-dihydrophthalazin-1-yl)phenyl]-1-(oxolan-3-ylmethyl)-1H-indazole-3-carboxamide] has an IC50 (ROCK1) of 0.1 to 100 nM and an IC50 (ROCK2) of 0.1 to 100 nM.
`COC(=O)COc1ccc2c(c1)N(C(=O)Cc1ccc(-c3n[nH]c(=O)c4ccccc34)cc1)CC2` [Example 283, methyl 2-[(1-{2-[4-(4-oxo-3,4-dihydrophthalazin-1-yl)phenyl]acetyl}-2,3-dihydro-1H-indol-6-yl)oxy]acetate] was tested, and the IC50 (ROCK1) was 0.1 to 100 nM and the IC50 (ROCK2) was 0.1 to 100 nM.
With `O=C(Nc1ccc(-c2n[nH]c(=O)c3ccccc23)cc1)c1ncn(-c2ccccn2)n1` [Example 240, N-[4-(4-oxo-3,4-dihydrophthalazin-1-yl)phenyl]-1-(pyridin-2-yl)-1H-1,2,4-triazole-3-carboxamide] the IC50 (ROCK1) was 101 to 1000 nM and the IC50 (ROCK2) was 0.1 to 100 nM.
Compound `COc1ccc2[nH]c(C(=O)Nc3ccc(-c4n[nH]c(=O)c5ccccc45)cc3)cc2c1` [Example 125, 5-methoxy-N-[4-(4-oxo-3,4-dihydrophthalazin-1-yl)phenyl]-1H-indole-2-carboxamide] has an IC50 (ROCK1) of 0.1 to 100 nM and an IC50 (ROCK2) of 0.1 to 100 nM.
`Cc1cc(NC(=O)c2nn(CCN(C)C)c3ccccc23)ccc1-c1n[nH]c(=O)c2ccccc12` [Example 303, 1-[2-(dimethylamino)ethyl]-N-[3-methyl-4-(4-oxo-3,4-dihydrophthalazin-1-yl)phenyl]-1H-indazole-3-carboxamide] was tested, and the IC50 (ROCK1) was 101 to 1000 nM and the IC50 (ROCK2) was 0.1 to 100 nM.
In the case of `Cc1nc(N2CCCc3ccccc32)sc1C(=O)Nc1ccc(-c2n[nH]c(=O)c3ccccc23)cc1` [Example 241, 4-methyl-N-[4-(4-oxo-3,4-dihydrophthalazin-1-yl)phenyl]-2-(1,2,3,4-tetrahydroquinolin-1-yl)-1,3-thiazole-5-carboxamide], the IC50 (ROCK1) is reported as 0.1 to 100 nM and the IC50 (ROCK2) is reported as 0.1 to 100 nM.
Compound `CC(=O)N1CC(Cn2nc(C(=O)Nc3ccc(-c4n[nH]c(=O)c5ccccc45)cc3)c3ccccc32)C1` [Example 339, 1-((1-Acetylazetidin-3-yl)methyl)-N-(4-(4-oxo-3,4-dihydrophthalazin-1-yl)phenyl)-1H-indazole-3-carboxamide] has an IC50 (ROCK1) of 0.1 to 100 nM and an IC50 (ROCK2) of 0.1 to 100 nM.
In the case of `Cc1cc(NC(=O)N2CCc3ccccc32)ccc1-c1n[nH]c(=O)c2ccccc12` [Example 324, N-(3-Methyl-4-(4-oxo-3,4-dihydrophthalazin-1-yl)phenyl)indoline-1-carboxamide], the IC50 (ROCK1) is reported as 0.1 to 100 nM and the IC50 (ROCK2) is reported as 0.1 to 100 nM.
Work on `O=C(Nc1ccc(-c2n[nH]c(=O)c3ccccc23)cc1)c1cnn2cc(OCCN3CCOCC3)ccc12` [Example 188, 6-[2-(morpholin-4-yl)ethoxy]-N-[4-(4-oxo-3,4-dihydrophthalazin-1-yl)phenyl]pyrazolo[1,5-a]pyridine-3-carboxamide] yielded an IC50 (ROCK1) of 0.1 to 100 nM and an IC50 (ROCK2) of 0.1 to 100 nM.
Work on `O=C(Nc1ccc(-c2n[nH]c(=O)c3ccccc23)cc1O)c1nn(CC2CCOC2)c2ccccc12` (stereo not shown) [Example 354, N-(2-Hydroxy-4-(4-oxo-3,4-dihydrophthalazin-1-yl)phenyl)-1-((tetrahydrofuran-3-yl)methyl)-1H-indazole-3-carboxamide] yielded an IC50 (ROCK1) of 0.1 to 100 nM and an IC50 (ROCK2) of 0.1 to 100 nM.
`CC(C)(O)Cn1nc(C(=O)Nc2ccc(-c3n[nH]c(=O)c4ccccc34)cc2)c2cc(F)ccc21` [Example 167, 5-fluoro-1-(2-hydroxy-2-methylpropyl)-N-[4-(4-oxo-3,4-dihydrophthalazin-1-yl)phenyl]-1H-indazole-3-carboxamide] was tested, and the IC50 (ROCK1) was 0.1 to 100 nM and the IC50 (ROCK2) was 0.1 to 100 nM.
With `O=C(Nc1ccc(-c2n[nH]c(=O)c3ccccc23)cc1)N1CCc2ccccc21` [Example 76, N-(4-(4-Oxo-3,4-dihydrophthalazin-1-yl)phenyl)indoline-1-carboxamide] the IC50 (ROCK1) was 0.1 to 100 nM and the IC50 (ROCK2) was 0.1 to 100 nM.
Compound `COC(=O)N1CC(Cn2nc(C(=O)Nc3ccc(-c4n[nH]c(=O)c5ccccc45)cc3)c3ccccc32)C1` [Example 341, Methyl 3-((3-((4-(4-oxo-3,4-dihydrophthalazin-1-yl)phenyl)carbamoyl)-1H-indazol-1-yl)methyl)azetidine-1-carboxylate] has an IC50 (ROCK1) of 0.1 to 100 nM and an IC50 (ROCK2) of 0.1 to 100 nM.
`O=C(Nc1ccc(-c2n[nH]c(=O)c3ccccc23)cc1)c1cnn2cccnc12` [Example 113, N-[4-(4-oxo-3,4-dihydrophthalazin-1-yl)phenyl]pyrazolo[1,5-a]pyrimidine-3-carboxamide] was tested, and the IC50 (ROCK1) was 101 to 1000 nM and the IC50 (ROCK2) was 101 to 1000 nM.
Work on `O=C(Cc1ccc(-c2n[nH]c(=O)c3ccccc23)cc1)N1CCC(c2ccccc2)CC1` [Example 11, 4-{4-[2-oxo-2-(4-phenylpiperidin-1-yl)ethyl]phenyl}-1,2-dihydrophthalazin-1-one] yielded an IC50 (ROCK1) of 1000 to 50000 nM and an IC50 (ROCK2) of 101 to 1000 nM.
For `CC(C)(O)COc1ccc2c(C(=O)Nc3ccc(-c4n[nH]c(=O)c5ccccc45)cc3)cnn2c1` [Example 172, 6-(2-hydroxy-2-methylpropoxy)-N-[4-(4-oxo-3,4-dihydrophthalazin-1-yl)phenyl]pyrazolo[1,5-a]pyridine-3-carboxamide], the IC50 (ROCK1) was 0.1 to 100 nM and the IC50 (ROCK2) was 0.1 to 100 nM.
In the case of `CC(C)Oc1ccc2c(c1)N(C(=O)Cc1ccc(-c3n[nH]c(=O)c4ccccc34)cc1)CC2` [Example 258, 4-(4-(2-(6-Isopropoxyindolin-1-yl)-2-oxoethyl)phenyl)phthalazin-1(2H)-one], the IC50 (ROCK1) is reported as 0.1 to 100 nM and the IC50 (ROCK2) is reported as 0.1 to 100 nM.
`COc1ccc2c(=O)[nH]cc(-c3ccc(CC(=O)N4Cc5ccccc5C4)cc3)c2c1` [Example 262, 4-{4-[2-(2,3-Dihydro-1H-isoindol-2-yl)-2-oxoethyl]phenyl}-6-methoxy-1,2-dihydroisoquinolin-1-one] showed an IC50 (ROCK1) of 101 to 1000 nM and an IC50 (ROCK2) of 0.1 to 100 nM.
In the case of `Cc1nn(-c2cccc(Cl)c2Cl)nc1C(=O)Nc1ccc(-c2n[nH]c(=O)c3ccccc23)cc1` [Example 238, 2-(2,3-dichlorophenyl)-5-methyl-N-[4-(4-oxo-3,4-dihydrophthalazin-1-yl)phenyl]-2H-1,2,3-triazole-4-carboxamide], the IC50 (ROCK1) is reported as 101 to 1000 nM and the IC50 (ROCK2) is reported as 0.1 to 100 nM.
Compound `CC(C)c1c(C(=O)Nc2ccc(-c3n[nH]c(=O)c4ccccc34)cc2)cn2nc[nH]c(=O)c12` [Example 108, 4-oxo-N-[4-(4-oxo-3,4-dihydrophthalazin-1-yl)phenyl]-5-(propan-2-yl)-3H,4H-pyrrolo[2,1-f][1,2,4]triazine-6-carboxamide] has an IC50 (ROCK1) of 101 to 1000 nM and an IC50 (ROCK2) of 0.1 to 100 nM.
